Test results reported in BindingDB's records for doi:10.1111/cbdd.12118 (Bombay College of Pharmacy, 2013).
pIC50: −log10 of the molar value.

These molecules were tested against T1, Enoyl-acyl carrier reductase (Plasmodium falciparum, UniProt Q9BH77) (assay: Fabl Assay). Conditions: pH 7.4.
T1 sequence (Q9BH77 whole entry): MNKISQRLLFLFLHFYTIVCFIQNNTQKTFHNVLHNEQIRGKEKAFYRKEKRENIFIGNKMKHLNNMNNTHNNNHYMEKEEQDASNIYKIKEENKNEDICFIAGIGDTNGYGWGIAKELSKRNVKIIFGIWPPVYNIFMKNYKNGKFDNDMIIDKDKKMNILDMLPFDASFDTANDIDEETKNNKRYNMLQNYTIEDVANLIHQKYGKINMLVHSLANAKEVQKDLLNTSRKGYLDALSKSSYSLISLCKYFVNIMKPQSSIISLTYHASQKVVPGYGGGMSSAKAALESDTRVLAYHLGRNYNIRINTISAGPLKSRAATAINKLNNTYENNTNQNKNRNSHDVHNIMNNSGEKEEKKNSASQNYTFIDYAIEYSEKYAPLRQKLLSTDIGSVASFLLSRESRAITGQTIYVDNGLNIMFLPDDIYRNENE
Excerpt: Inhibition assay using pfENR.

SMILES | pIC50
O=C(CNc1ccccc1)N/N=C/c1ccccc1Cl [Phenylaminoacetic acid benzylidene hydrazine analog, 1] | 4.05
COc1ccc(/C=N/NC(=O)CNc2ccc(Cl)cc2)cc1OC [Phenylaminoacetic acid benzylidene hydrazine analog, 3] | < 3.84
CN(C)c1ccc(/C=N/NC(=O)CNc2ccc(F)cc2)cc1 [Phenylaminoacetic acid benzylidene hydrazine analog, 7] | 5.10
O=C(CNc1cccc(F)c1Cl)N/N=C/c1ccccc1O [Phenylaminoacetic acid benzylidene hydrazine analog, 12] | < 3.81
O=C(CNc1cccc(F)c1Cl)N/N=C/c1ccccc1Cl [Phenylaminoacetic acid benzylidene hydrazine analog, 14] | 4.54
O=C(CNc1cccc(F)c1Cl)N/N=C/c1cccc(Br)c1 [Phenylaminoacetic acid benzylidene hydrazine analog, 15] | < 3.89
O=C(CNc1ccc(Cl)cc1)N/N=C/c1ccccc1O [Phenylaminoacetic acid benzylidene hydrazine analog, 16] | < 3.79
O=C(CNc1cccc(Cl)c1)N/N=C/c1ccccc1 [Phenylaminoacetic acid benzylidene hydrazine analog, 19] | 3.76
O=C(CNc1cccc(Cl)c1)N/N=C/c1ccccc1Cl [Phenylaminoacetic acid benzylidene hydrazine analog, 20] | 4.11
O=C(CNc1cccc(Cl)c1)N/N=C/c1cccc(Br)c1 [Phenylaminoacetic acid benzylidene hydrazine analog, 21] | 3.79

Next, values leading:

pIC50 | SMILES
< 3.80 | COc1ccc(/C=N/NC(=O)CNc2ccccc2)cc1OC [Phenylaminoacetic acid benzylidene hydrazine analog, 2]
5.00 | O=C(CNc1ccc(Cl)cc1)N/N=C/c1ccccc1 [Phenylaminoacetic acid benzylidene hydrazine analog, 4]
4.92 | O=C(CNc1ccc(F)cc1)N/N=C/c1ccccc1O [Phenylaminoacetic acid benzylidene hydrazine analog, 6]
3.71 | O=C(CNc1ccccc1)N/N=C/c1ccccc1 [Phenylaminoacetic acid benzylidene hydrazine analog, 8]
4.05 | O=C(CNc1ccccc1)N/N=C/c1cccc(Br)c1 [Phenylaminoacetic acid benzylidene hydrazine analog, 9]
< 3.73 | O=C(CNc1ccccc1)N/N=C/c1ccccc1O [Phenylaminoacetic acid benzylidene hydrazine analog, 10]
< 3.77 | CN(C)c1ccc(/C=N/NC(=O)CNc2ccccc2)cc1 [Phenylaminoacetic acid benzylidene hydrazine analog, 11]
< 3.79 | O=C(CNc1cccc(F)c1Cl)N/N=C/c1ccccc1 [Phenylaminoacetic acid benzylidene hydrazine analog, 13]
5.15 | O=C(CNc1ccc(Cl)cc1)N/N=C/c1cccc(Br)c1 [Phenylaminoacetic acid benzylidene hydrazine analog, 17]
3.79 | O=C(CNc1ccc(F)cc1)N/N=C/c1ccccc1Cl [Phenylaminoacetic acid benzylidene hydrazine analog, 18]
